# Key:
# [1] = molecular target: D(1A) dopamine receptor (Bos taurus, UniProt Q95136); assay: Binding affinity was evaluated for the displacement of [3H]-SCH- 23390 against bovine Dopamine receptor D1
# [2] = molecular target: D(3) dopamine receptor (Homo sapiens, UniProt P35462); assay: Binding affinity evaluated for the displacement of [3H]-spiperone against human dopamine receptor D3
# [3] = molecular target: D(2) dopamine receptor (Bos taurus, UniProt P20288); assay: Binding affinity was evaluated for the displacement of [3H]spiperone against bovine Dopamine receptor D2
# Chain of D(2) dopamine receptor (P20288 whole entry): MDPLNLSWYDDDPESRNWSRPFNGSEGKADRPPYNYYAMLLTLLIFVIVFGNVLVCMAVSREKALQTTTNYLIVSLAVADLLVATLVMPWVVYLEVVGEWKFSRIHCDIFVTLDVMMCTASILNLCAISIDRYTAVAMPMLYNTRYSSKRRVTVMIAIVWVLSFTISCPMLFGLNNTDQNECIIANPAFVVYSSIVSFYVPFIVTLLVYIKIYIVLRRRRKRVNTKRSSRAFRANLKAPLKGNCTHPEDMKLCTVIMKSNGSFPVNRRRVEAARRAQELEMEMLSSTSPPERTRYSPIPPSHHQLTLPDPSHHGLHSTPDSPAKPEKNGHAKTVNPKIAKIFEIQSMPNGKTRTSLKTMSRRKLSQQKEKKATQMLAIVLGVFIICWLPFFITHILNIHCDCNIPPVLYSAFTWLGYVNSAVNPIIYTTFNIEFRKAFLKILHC
# [4] = molecular target: T1, D(4) dopamine receptor (Homo sapiens, UniProt P21917); assay: Binding affinity evaluated for the displacement of [3H]spiperone against human dopamine receptor D4
# T1 sequence (P21917 whole entry): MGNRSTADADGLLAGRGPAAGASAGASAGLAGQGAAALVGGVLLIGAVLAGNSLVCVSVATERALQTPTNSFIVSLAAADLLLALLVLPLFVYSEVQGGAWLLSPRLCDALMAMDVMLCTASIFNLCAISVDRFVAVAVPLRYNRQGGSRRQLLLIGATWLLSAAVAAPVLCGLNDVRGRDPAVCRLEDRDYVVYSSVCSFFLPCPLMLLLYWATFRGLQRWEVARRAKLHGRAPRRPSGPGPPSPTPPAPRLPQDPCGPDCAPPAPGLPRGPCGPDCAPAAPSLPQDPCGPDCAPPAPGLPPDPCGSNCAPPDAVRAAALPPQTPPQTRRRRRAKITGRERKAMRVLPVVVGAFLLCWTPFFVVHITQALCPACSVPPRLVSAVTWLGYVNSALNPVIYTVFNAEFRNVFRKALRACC
# Chain of D(3) dopamine receptor (P35462 whole entry): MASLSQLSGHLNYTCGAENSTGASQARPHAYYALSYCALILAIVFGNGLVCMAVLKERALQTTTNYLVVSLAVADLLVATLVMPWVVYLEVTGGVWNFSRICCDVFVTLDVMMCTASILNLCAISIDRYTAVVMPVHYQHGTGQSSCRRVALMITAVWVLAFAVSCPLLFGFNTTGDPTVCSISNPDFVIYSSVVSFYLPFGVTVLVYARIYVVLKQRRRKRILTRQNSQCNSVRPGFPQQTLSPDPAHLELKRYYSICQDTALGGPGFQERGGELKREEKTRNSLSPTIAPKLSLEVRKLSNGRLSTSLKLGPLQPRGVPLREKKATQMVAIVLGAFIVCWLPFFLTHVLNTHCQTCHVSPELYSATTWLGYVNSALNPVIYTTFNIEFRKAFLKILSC
# Chain of D(1A) dopamine receptor (Q95136 whole entry): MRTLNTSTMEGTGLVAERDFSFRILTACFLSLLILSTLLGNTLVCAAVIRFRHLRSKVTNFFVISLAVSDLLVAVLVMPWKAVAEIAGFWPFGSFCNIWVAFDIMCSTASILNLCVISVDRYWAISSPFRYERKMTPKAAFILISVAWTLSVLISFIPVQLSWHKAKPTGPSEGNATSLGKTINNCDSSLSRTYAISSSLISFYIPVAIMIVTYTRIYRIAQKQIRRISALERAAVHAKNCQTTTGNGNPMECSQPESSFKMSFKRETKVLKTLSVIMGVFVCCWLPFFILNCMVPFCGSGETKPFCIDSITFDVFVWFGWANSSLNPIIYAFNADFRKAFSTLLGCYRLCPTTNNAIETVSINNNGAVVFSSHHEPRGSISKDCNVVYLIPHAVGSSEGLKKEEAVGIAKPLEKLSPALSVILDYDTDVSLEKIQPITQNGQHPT
SMILES,Ki [1],Ki [2],Ki [3],Ki [4]
O=C(c1cnn2ccccc12)N1CCN(c2ccc(Cl)cc2)CC1,> 100 µM,61 µM,30 µM,23 µM
Ic1ccc(N2CCN(Cc3cnn4ccccc34)CC2)cc1,17 µM,6.7 µM,1.4 µM,0.003 µM

# Source: ChEMBL document CHEMBL1131703, “Azaindole derivatives with high affinity for the dopamine D4 receptor: synthesis, ligand binding studies and comparison of molecular electrostatic potential maps” (Bioorg Med Chem Lett, 1999)
